{"source": "paper PMC4757757", "about": "“Discovery of cahuitamycins as biofilm inhibitors derived from a convergent biosynthetic pathway” (Nature Communications, 2016)", "key": {"[1]": {"settings": "reference value used for the calculation; cited from earlier work", "method": "(§1) In this method, the Fe–cahuitamycin complex was incubated with varying concentrations of EDTA and assessed for Fe distribution using ultraviolet–visible spectroscopy (Methods). The pFe^III for cahuitamycins were calculated against the known stability constants for EDTA (pFe^III=23.42)[24]."}, "[2]": {"system": "A. baumannii ATCC 17978 biofilm", "experiment": "confocal laser scanning microscope 3D imaging of biofilm formation and biomass (SYTO 9 / propidium iodide, COMSTAT)", "format": "cell-based, Acinetobacter baumannii", "method": "For visualizing bacterial biofilm formation, the same method as described previously was used for biofilm formation but in a glass-bottom 96-well plate (12–556–38, Fisher Scientific International Inc., Franklin, MA)[65]. […] PBS buffer (100 μl) containing 1 μM of SYTO 9 and 10 μM of propidium iodide was added into the well. The plate was incubated for 15 min in dark. Fluorescent images were acquired with an Olympus Fluoview FV1000 confocal microscope (Olympus, Markham, Ontario) with Melles Griot Laser supply and detectors and filter sets for monitoring SYTO 9 and propidium iodide fluorescence. Images were obtained using an oil immersion × 60 objective lens. 3D images were reconstructed using the Amira software package (Amira, San Diego, CA) from a stack of sectional images of biofilm samples. Biofilm biomass and per cent coverage were calculated based on those images using software COMSTAT[65]."}, "[3]": {"experiment": "iron affinity (pFe^III) by competition titration with EDTA, UV-visible spectroscopy", "format": "binding", "settings": "10 mM HEPES, 0.1 M KCl, pH 7.4, 0.1 mM Fe complex, room temperature, at least 24 h, UV-vis, three individual titrations", "method": "as §1"}, "A. baumannii ATCC 17978": {"system": "A. baumannii ATCC 17978", "experiment": "growth of A. baumannii (minimum inhibitory concentration test, OD600 / CFU)", "format": "cell-based, Acinetobacter baumannii", "method": "Cultures of A. baumannii ATCC 17978 grown overnight were diluted into fresh 10% Mueller Hinton II broth to get 10^5 colony-forming unit per ml by determining optical density at OD600. A volume of 100 μl of diluted cultures were incubated in individual wells of 96-well plate containing 1% of DMSO and various concentrations of cahuitamycins C (3) and D (4). The plate was incubated at 30 °C with shaking at 150 r.p.m. The optical density of each well was monitored every 1 up to 24 h using a microtiter plate reader (Synergy HT, Bio-Tek, Winooski, VT). The number of viable bacterial cells was determined by counting colony-forming unit."}, "[4]": {"system": "A. baumannii ATCC 17978 biofilm", "format": "cell-based, Acinetobacter baumannii", "settings": "static crystal violet assay, OD600", "from_the_text": "A static biofilm assay was developed from a previously reported method. The biofilm assay measures the adhesion of bacteria to the surface of polystyrene 384-well microtiter plates. Adherent cells are detected by staining with crystal violet and subsequent washing to remove nonadherent planktonic cells. Inhibitors of biofilm formation prevent the bacteria from adhering to the surface of the microtiter plate and reduce the amount of crystal violet retained after washing. Assay quantification was performed by OD600 absorbance measurement of the crystal-violet-stained biofilm. The assay was optimized for plate surface treatment, time, temperature, media, media concentration, crystal violet concentration, wash method, inhibitor sensitivity and culture inoculum preparation.\nThe A. baumannii test strain (ATCC 17978) was maintained as a frozen stock at −80 °C in 20% glycerol. A volume of 5 ml of Mueller Hinton II cation adjusted media (Becton Dickinson, catalogue no. 212322) was inoculated and grown at 37 °C, 180 r.p.m. shaking for 4–6 h. The culture was then diluted 1:50 and incubated an additional 2 h. The resulting cells were washed four times by centrifugation and resuspension of the pellet in media was performed to remove any metabolites or cell signalling factors. The assay inoculum was prepared by diluting the cells to 0.008 OD600 in 10% Mueller Hinton II cation adjusted media (diluted in 18 Ohm deionized water). The assay plates (Corning, catalogue no. 3,680; 384-well non-treated polystyrene) were prepared by dispensing 20 μl of 10% Mueller Hinton II cation adjusted media into columns 1–22 using a Multidrop Combi dispenser (Thermo Fisher). The NPE samples were added as 0.2 μl of 15 mg ml^−1 stocks in DMSO using a Biomek FX high-density pintool (Beckman Coulter). Column 1 and 2 contained DMSO without NPEs and served as the negative control. The positive control was added to column 23 and 24 as 20 μl of 40 μM Baicalein (Sigma-Aldrich, catalogue no. 11712). […] Quantification was performed by measuring the OD600 absorbance using a Pherastar plate reader (BMG)."}, "[5]": {"system": "A. baumannii ATCC 17978 biofilm", "experiment": "flow cell biofilm assay (micrographs)", "format": "cell-based, Acinetobacter baumannii", "settings": "for biofilm in flow cells after 6 h of supplementation (in words) / biofilm in flow cells after 24 h of supplementation (in words): 7.5 μg/ml in 10% MHII broth, flow rate 4 ml/h, room temperature", "method": "Next, we sought to probe the specific stage and extent of inhibition during biofilm formation employing a secondary flow cell assay (Supplementary Fig. 44; Methods).\nBiofilms were formed by A. baumannii ATCC 17978 in flow chambers at room temperature. Images were taken at 1, 6 and 24 h (using a × 60 lens) after inoculation. A flow cell biofilm was achieved by using a flow cell chamber (ACCFL0001, Life Science Incorporated, Greensboro, NC). Briefly, overnight cultures of A. baumannii ATCC 17978 grown in MHII broth at 37 °C were diluted 100-fold with fresh MHII broth. A volume of 1 ml of dilution was injected into a flow cell chamber and allowed to settle 1 h for attachment of bacteria, followed by initiation media flow at a flow rate of 4 ml^−1 h^−1. Flow media was 10% MHII broth (control), 10% MHII broth with 7.5 μg ml^−1 of desferoxamine or 10% MHII broth with […] of cahuitamycin A. Micrographs of the biofilm were acquired at 1, 6 and 24 h after the start of flow media using an Olympus IX70 microscope with a × 60 lens. Flow was still running while acquiring the micrograph."}, "[6]": {"settings": "treated at 240 nM, 22 h incubation, confocal x60, average of five replicates"}}, "data": [{"molecule": "O=C(O)CN(CCN(CC(=O)O)CC(=O)O)CC(=O)O", "note": "[EDTA]", "values": [{"measurement": "pFe^III (known stability constant)", "setting": "[1]", "result": 23.42}]}, {"molecule": "Cc1cccc(O)c1C1=N[C@H](C(=O)N[C@@H](CO)C(=O)N[C@H](CCCN(O)C=O)C(=O)N2NCCC[C@@H]2C(=O)NCCC(=O)O)CO1", "note": "[compound 3, Cahuitamycin C]", "values": [{"measurement": "total biomass of biofilm", "setting": "[2]; glass plate treated at 240 nM", "result": 0.10}, {"measurement": "Average thickness of biofilm", "setting": "[2]; [6]", "result": "0.20±0.05", "unit": "μm"}, {"measurement": "Maximum thickness of biofilm", "setting": "[2]; [6]", "result": "1.5±0.33", "unit": "μm"}, {"measurement": "Roughness coefficient of biofilm", "setting": "[2]; [6]", "result": "1.99±0.20"}, {"measurement": "total biomass of biofilm", "setting": "[2]; [6]", "result": "0.10±0.03", "unit": "μm^3 μm^−2"}, {"measurement": "pFe^III", "setting": "[3]", "result": "17.52±0.12"}, {"measurement": "effect on bacterial growth (in words)", "setting": "A. baumannii ATCC 17978", "result": "limited effect"}]}, {"molecule": "Cc1ccc(O)c(C2=N[C@H](C(=O)N[C@@H](CO)C(=O)N[C@H](CCCN(O)C=O)C(=O)N[C@H](CCCNO)C(=O)NCCC(=O)O)CO2)c1", "note": "[compound 5, Cahuitamycin E]", "values": [{"measurement": "IC50", "setting": "[4]; 10% Mueller Hinton II, 30 °C, 20 h, average of three replicates, read-out: IC50, inhibition of biofilm formation", "result": 10.5, "unit": "µM"}]}, {"molecule": "CC(=O)N(O)CCCCCNC(=O)CCC(=O)N(O)CCCCCNC(=O)CCC(=O)N(O)CCCCCN", "note": "[desferrioxamine]", "values": [{"measurement": "biofilm in flow cells after 6 h of supplementation (in words)", "setting": "[5]", "result": "formation of a robust biofilm"}, {"measurement": "biofilm in flow cells after 24 h of supplementation (in words)", "setting": "[5]", "result": "biofilm became thicker"}, {"measurement": "anti-biofilm activity of siderophore control (in words)", "setting": "[5]; control to probe iron chelation as mode of action, Supplementary Figs 38 and 44", "result": "no activity"}]}, {"molecule": "Cahuitamycin A [compound 1]", "values": [{"measurement": "total biomass of biofilm", "setting": "[2]; glass plate treated at 240 nM", "result": 0.18}, {"measurement": "Average thickness of biofilm", "setting": "[2]; [6]", "result": "0.21±0.07", "unit": "μm"}, {"measurement": "Maximum thickness of biofilm", "setting": "[2]; [6]", "result": "1.5±0.54", "unit": "μm"}, {"measurement": "Roughness coefficient of biofilm", "setting": "[2]; [6]", "result": "1.99±0.18"}, {"measurement": "total biomass of biofilm", "setting": "[2]; [6]", "result": "0.18±0.05", "unit": "μm^3 μm^−2"}, {"measurement": "pFe^III", "setting": "[3]", "result": "18.34±0.16"}, {"measurement": "biofilm in flow cells after 6 h of supplementation (in words)", "setting": "[5]", "result": "only a few microcolonies"}, {"measurement": "biofilm in flow cells after 24 h of supplementation (in words)", "setting": "[5]", "result": "larger microcolonies and initiation of biofilm formation"}, {"measurement": "effect on biofilm formation (in words)", "setting": "[4]", "result": "able to inhibit"}]}, {"molecule": "Cahuitamycin B [compound 2]", "values": [{"measurement": "pFe^III", "setting": "[3]", "result": "20.42±0.09"}, {"measurement": "effect on bacterial growth (in words)", "setting": "A. baumannii ATCC 17978", "result": "no effects"}, {"measurement": "effect on biofilm formation (in words)", "setting": "[4]", "result": "no effects"}]}]}
